Test results taken from patent US10975056B2 (GlaxoSmithKline Intellectual Property Development Limited, priority 2016, dated 2021).
Several values for one entry are separate records, joined by “and”; a condition that tells them apart may be missing. Equal entries are not always repeated. Where two headings read alike, the source gives them in different places.

Key:
[1] = target: DNMT1 (Homo sapiens, UniProt P26358); experiment: DNMT1 biochemical activity, breaklight assay and/or SPA assay
[2] = test system: erythroid progenitor cells (EPCs); experiment: Fetal hemoglobin (HbF) ELISA in day 7 erythroid progenitor cells; assay type: cell-based, human; conditions: HbF ELISA, day 7 EPCs, 5 days; for EC50: Homo sapiens, Erythroid progenitor cell, read-out: EPC ELISA (pEC50 category) (converted);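 for all read-outs here: for fetal hemoglobin induction normalized to vehicle-treated cells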
Summary of the method: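 HbF induction was read by anti-HbF sandwich ELISA (HRP/TMB, OD450) on lysates and normalized to vehicle-treated cells. Cells were day 7 erythroid progenitors derived from human bone marrow CD34+ cells, seeded at 1,000/well with 3 U/mL rhEPO. Compound was given for 5 days at 37 °C at final concentrations […].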

[3] = binned activity in either the breaklight or the SPA assay, read-out: DNMT1 BioChemical (pIC50 category) (converted)
[4] = binned activity in either the breaklight or the SPA assay
[5] = breaklight assay and/or SPA assay, repeated experimental runs, read-out: average pIC50 against DNMT1 (converted)

Chain of DNMT1 (P26358 whole entry, looked up): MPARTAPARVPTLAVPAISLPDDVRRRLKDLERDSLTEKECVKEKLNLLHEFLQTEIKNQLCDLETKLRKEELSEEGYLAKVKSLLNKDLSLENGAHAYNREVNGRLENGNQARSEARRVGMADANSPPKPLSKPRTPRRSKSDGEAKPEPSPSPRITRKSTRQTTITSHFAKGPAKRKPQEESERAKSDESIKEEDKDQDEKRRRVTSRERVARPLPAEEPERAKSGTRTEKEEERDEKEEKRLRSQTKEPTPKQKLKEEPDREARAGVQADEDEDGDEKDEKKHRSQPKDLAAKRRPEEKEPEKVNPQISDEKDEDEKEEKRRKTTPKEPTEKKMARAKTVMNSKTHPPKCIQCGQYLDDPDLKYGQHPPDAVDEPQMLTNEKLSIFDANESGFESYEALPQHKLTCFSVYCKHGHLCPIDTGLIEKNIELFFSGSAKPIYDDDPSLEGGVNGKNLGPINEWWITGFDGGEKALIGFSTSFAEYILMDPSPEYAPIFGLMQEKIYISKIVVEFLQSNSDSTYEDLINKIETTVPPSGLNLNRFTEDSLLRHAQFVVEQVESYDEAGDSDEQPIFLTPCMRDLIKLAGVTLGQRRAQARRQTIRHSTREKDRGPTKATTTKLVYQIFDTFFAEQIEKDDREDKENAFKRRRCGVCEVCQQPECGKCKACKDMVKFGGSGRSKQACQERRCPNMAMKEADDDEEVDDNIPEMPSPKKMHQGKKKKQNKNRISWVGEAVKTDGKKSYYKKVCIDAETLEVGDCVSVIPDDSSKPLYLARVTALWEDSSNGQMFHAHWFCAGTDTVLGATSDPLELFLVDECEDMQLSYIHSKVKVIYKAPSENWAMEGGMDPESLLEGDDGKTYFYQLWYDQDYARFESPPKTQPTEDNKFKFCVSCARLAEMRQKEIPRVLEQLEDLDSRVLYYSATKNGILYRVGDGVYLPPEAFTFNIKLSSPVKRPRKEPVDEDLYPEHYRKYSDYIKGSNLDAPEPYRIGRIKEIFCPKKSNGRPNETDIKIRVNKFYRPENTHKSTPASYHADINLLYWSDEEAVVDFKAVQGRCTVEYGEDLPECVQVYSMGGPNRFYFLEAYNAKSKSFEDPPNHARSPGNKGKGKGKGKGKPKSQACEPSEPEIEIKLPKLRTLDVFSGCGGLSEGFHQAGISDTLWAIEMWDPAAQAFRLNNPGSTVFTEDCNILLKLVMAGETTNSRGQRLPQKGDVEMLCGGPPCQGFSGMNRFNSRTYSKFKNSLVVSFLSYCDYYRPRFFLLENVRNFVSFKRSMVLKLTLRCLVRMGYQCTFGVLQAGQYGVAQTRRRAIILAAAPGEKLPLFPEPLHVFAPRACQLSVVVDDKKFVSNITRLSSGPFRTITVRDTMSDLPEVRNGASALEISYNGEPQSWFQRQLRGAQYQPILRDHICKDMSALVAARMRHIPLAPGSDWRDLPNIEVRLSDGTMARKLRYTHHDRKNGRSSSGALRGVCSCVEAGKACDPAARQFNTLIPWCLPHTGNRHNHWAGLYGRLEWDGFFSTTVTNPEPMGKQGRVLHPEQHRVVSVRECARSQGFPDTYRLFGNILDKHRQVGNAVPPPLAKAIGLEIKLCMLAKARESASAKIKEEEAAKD

## CNc1c(C#N)c(SCc2ccc(CNC(C)=O)cc2)nc(N2CCCN(C)CC2)c1C#N [Example 91, N-(4-(((3,5-Dicyano-6-(4-methyl-1,4-diazepan-1-yl)-4-(methylamino)pyridin-2-yl)thio)methyl)benzyl)acetamide]
[1]; [3]
  IC50: 316 to 1000 nM
[2]
  EC50: 1000 to 31600 nM

## CCc1c(C#N)c(SC(C(N)=O)c2ccccc2)nc(N(C)CCN2[C@@H](C)CC[C@@H]2C)c1C#N (stereo partly drawn) [Example 490, 2-((3,5-dicyano-6-((2-((2S,5S)-2,5-dimethylpyrrolidin-1-yl)ethyl)(methyl)amino)-4-ethylpyridin-2-yl)thio)-2-phenylacetamide]
[1]; [4]
  DNMT1 BioChemical (pIC50 category): D (Category D: ≥6.5)
[2]
  EC50: 316 to 1000 nM

## N#Cc1c(N2CCCNCC2)nc(SC(C(N)=O)c2ccccc2)c2c1CCC2 (centres unmarked) [Example 171, 2-((4-Cyano-3-(1,4-diazepan-1-yl)-6,7-dihydro-5H-cyclopenta[c]pyridin-1-yl)thio)-2-phenylacetamide]
[1]; [3]
  IC50: 316 to 1000 nM
[2]
  EC50: > 31600 nM

## CCc1c(C#N)c(SC(C(N)=O)c2ccccc2)nc(N2CCCN(C)CC2)c1C#N (single isomer, unassigned; isomer 2) [Example 255, 2-((3,5-dicyano-4-ethyl-6-(4-methyl-1,4-diazepan-1-yl)pyridin-2-yl)thio)-2-phenylacetamide (Isomer 2)]
[1]; [3]
  IC50: 1000 to 31600 nM
[2]
  EPC ELISA (pEC50 category): C (Category C: 6.0 ≤ x < 6.5)

## CCc1c(C#N)c(SCc2ccc(CNC(=O)C(C)C)cc2)nc(N2CCCN(C)CC2)c1C#N [Example 88, N-(4-(((3,5-Dicyano-4-ethyl-6-(4-methyl-1,4-diazepan-1-yl)pyridin-2-yl)thio)methyl)benzyl)isobutyramide]
[1]; [3]
  IC50: 316 to 1000 nM
[2]
  EC50: > 31600 nM

## CCc1c(C#N)c(SC(C(N)=O)c2ccc(F)cc2)nc(N2CCC(N3CC(OC)C3)CC2)c1C#N (centres unmarked) [Example 698, 2-((3,5-dicyano-4-ethyl-6-(4-(3-methoxyazetidin-1-yl)piperidin-1-yl)pyridin-2-yl)thio)-2-(4-fluorophenyl)acetamide]
[1]; [4]
  DNMT1 BioChemical (pIC50 category): D (Category D: ≥6.5)
[2]
  EC50: < 316 nM

## CCc1c(C#N)c(SC(C(N)=O)c2ccnc(F)c2)nc(N2CCCN(C)CC2)c1C#N (centres unmarked) [Example 239, 2-((3,5-Dicyano-4-ethyl-6-(4-methyl-1,4-diazepan-1-yl)pyridin-2-yl)thio)-2-(2-fluoropyridin-4-yl)acetamide]
[1]; [3]
  IC50: 1000 to 31600 nM
[2]
  EC50: > 31600 nM

## CCc1c(C#N)c(S[C@@H](C(N)=O)c2ccc(F)cc2)nc(N2CC[C@H](OP(=O)(O)O)C2)c1C#N [Example 426, (S)-1-(6-(((R)-2-amino-1-(4-fluorophenyl)-2-oxoethyl)thio)-3,5-dicyano-4-ethylpyridin-2-yl)pyrrolidin-3-yl dihydrogen phosphate]
[1]; [3]
  IC50: 1000 to 31600 nM
[2]
  EC50: > 31600 nM

## CCc1c(C#N)c(SC(C(N)=O)c2ccccc2)nc(N(C)CC(=O)N2C[C@@H](O)[C@@H](O)C2)c1C#N (stereo partly drawn) [Example 647, 2-((3,5-dicyano-6-((2-((cis)-3,4-dihydroxypyrrolidin-1-yl)-2-oxoethyl)(methyl)amino)-4-ethylpyridin-2-yl)thio)-2-phenylacetamide]
[1]; [4]
  DNMT1 BioChemical (pIC50 category): D (Category D: ≥6.5)
[2]
  EC50: 316 to 1000 nM

## CCc1c(C#N)c(SC(C(N)=O)c2ccccc2)nc(N2CCN(CCCN(C)C)CC2)c1C#N (centres unmarked) [Example 120]
[1]; [3]
  IC50: 316 to 1000 nM
[1]; [5]
  IC50: 316 to 1000 nM
[2]
  EC50: < 316 nM

## CCc1c(C#N)c(SC(C(N)=O)c2ccccc2)nc(N(C)Cc2n[nH]c(=O)[nH]2)c1C#N (centres unmarked) [Example 340, 2-((3,5-Dicyano-4-ethyl-6-(methyl((5-oxo-4,5-dihydro-1H-1,2,4-triazol-3-yl)methyl)amino)pyridin-2-yl)thio)-2-phenylacetamide]
[1]; [4]
  DNMT1 BioChemical (pIC50 category): D (Category D: ≥6.5)
[2]
  EC50: 1000 to 31600 nM

## CCc1c(C#N)c(SC(C(N)=O)c2ccccc2)nc(N2CCC(N3CCOCC3)CC2)c1C#N (centres unmarked) [Example 503, 2-((3,5-dicyano-4-ethyl-6-(4-morpholinopiperidin-1-yl)pyridin-2-yl)thio)-2-phenylacetamide]
[1]; [4]
  DNMT1 BioChemical (pIC50 category): D (Category D: ≥6.5)
[2]
  EC50: 316 to 1000 nM

## CCc1c(C#N)c(SC(C(N)=O)c2cccnc2)nc(N2CC[C@H](O)C2)c1C#N (stereo partly drawn) [Example 181, 2-((3,5-Dicyano-4-ethyl-6-((S)-3-hydroxypyrrolidin-1-yl)pyridin-2-yl)thio)-2-(pyridin-3-yl)acetamide]
[1]; [3]
  IC50: 316 to 1000 nM
[2]
  EC50: 1000 to 31600 nM

## CN(CC(=O)NC(CO)CO)c1nc(SC(C(N)=O)c2ccccc2)c(C#N)c(C2CC2)c1C#N (centres unmarked) [Example 639, 2-((6-((2-amino-2-oxo-1-phenylethyl)thio)-3,5-dicyano-4-cyclopropylpyridin-2-yl)(methyl)amino)-N-(1,3-dihydroxypropan-2-yl)acetamide]
[1]; [4]
  DNMT1 BioChemical (pIC50 category): D (Category D: ≥6.5)
[2]
  EC50: 1000 to 31600 nM

## CCc1c(C#N)c(SCc2ccc(CC(=O)NCCO)cc2)nc(N(C)C)c1C#N [Example 291, 2-(4-(((3,5-Dicyano-6-(dimethylamino)-4-ethylpyridin-2-yl)thio)methyl)phenyl)-N-(2-hydroxyethyl)acetamide]
[1]; [3]
  IC50: 316 to 1000 nM
[2]
  EC50: 1000 to 31600 nM

## CCc1c(C#N)c(SC(C(N)=O)c2ccccc2)nc(N2CCC(N3CCC(F)(F)C3)CC2)c1C#N (centres unmarked) [Example 496, 2-((3,5-dicyano-6-(4-(3,3-difluoropyrrolidin-1-yl)piperidin-1-yl)-4-ethylpyridin-2-yl)thio)-2-phenylacetamide]
[1]; [3]
  IC50: 316 to 1000 nM
[1]; [5]
  IC50: 316 to 1000 nM and 398 nM
[2]
  EC50: < 316 nM

## CCc1c(C#N)c(SC(C(N)=O)c2ccccc2)nc(N2CCC[C@@H](CN)C2)c1C#N (stereo partly drawn) [Example 576, 2-((6-((S)-3-(aminomethyl)piperidin-1-yl)-3,5-dicyano-4-ethylpyridin-2-yl)thio)-2-phenylacetamide]
[1]; [3]
  IC50: < 316 nM
[2]
  EC50: < 316 nM

## C[C@H](N)C(=O)NC1CCN(c2nc(SC(C(N)=O)c3ccccc3)c(C#N)c(C3CC3)c2C#N)CC1 (stereo partly drawn) [Example 655, (2S)-2-amino-N-(1-(6-((2-amino-2-oxo-1-phenylethyl)thio)-3,5-dicyano-4-cyclopropylpyridin-2-yl)piperidin-4-yl)propanamide]
[1]; [4]
  DNMT1 BioChemical (pIC50 category): D (Category D: ≥6.5)
[2]
  EC50: 316 to 1000 nM

## CCc1c(C#N)c(SC(C(N)=O)c2ccccc2)nc(N2CCC(N3CCC[C@@H]3C)CC2)c1C#N (stereo partly drawn) [Example 453, 2-((3,5-dicyano-4-ethyl-6-(4-((S)-2-methylpyrrolidin-1-yl)piperidin-1-yl)pyridin-2-yl)thio)-2-phenylacetamide]
[1]; [4]
  DNMT1 BioChemical (pIC50 category): D (Category D: ≥6.5)
[2]
  EC50: < 316 nM

## CCc1c(C#N)c(SC(C(N)=O)c2ccccc2)nc(N2CC[C@@H](O)C2)c1C#N (stereo partly drawn) [Example 160, 2-((3,5-Dicyano-4-ethyl-6-((R)-3-hydroxypyrrolidin-1-yl)pyridin-2-yl)thio)-2-phenylacetamide]
[1]; [3]
  IC50: 1000 to 31600 nM
[2]
  EC50: 1000 to 31600 nM

## C[C@@H](N)C(=O)NC1CCN(c2nc(SC(C(N)=O)c3ccccc3)c(C#N)c(C3CC3)c2C#N)CC1 (stereo partly drawn) [Example 372, (2R)-2-Amino-N-(1-(6-((2-amino-2-oxo-1-phenylethyl)thio)-3,5-dicyano-4-cyclopropylpyridin-2-yl)piperidin-4-yl)propanamide]
[1]; [4]
  DNMT1 BioChemical (pIC50 category): D (Category D: ≥6.5)
[2]
  EC50: 316 to 1000 nM
